Reference: patent US10669258B2, “3-sulfonyl-5-aminopyridine-2,4-diol APJ agonists” (BRISTOL-MYERS SQUIBB COMPANY, priority 2016, dated 2020)
Like-named read-outs stand apart in the source and are kept apart here.

Target: T1, human APJ receptor (Homo sapiens, UniProt P35414)
T1 construct: expressed in transfected cells; host or cells: HEK293
T1 sequence (P35414 1-380): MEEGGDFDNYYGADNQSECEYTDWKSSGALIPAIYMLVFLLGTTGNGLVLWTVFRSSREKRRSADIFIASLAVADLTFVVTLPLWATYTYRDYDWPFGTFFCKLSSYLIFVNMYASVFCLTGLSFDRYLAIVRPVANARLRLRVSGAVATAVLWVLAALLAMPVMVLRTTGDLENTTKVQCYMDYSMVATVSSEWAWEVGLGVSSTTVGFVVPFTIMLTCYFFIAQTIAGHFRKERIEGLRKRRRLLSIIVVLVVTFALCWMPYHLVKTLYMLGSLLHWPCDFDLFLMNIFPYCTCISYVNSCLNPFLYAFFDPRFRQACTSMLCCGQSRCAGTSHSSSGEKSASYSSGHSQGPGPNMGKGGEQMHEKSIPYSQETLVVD
Assay: Intracellular cAMP accumulation assay (APJ hcAMP, HTRF)
Assay type: cell-based
Conditions: HEK293 cells stably expressing human APJ receptor, inhibition of forskolin-mediated cAMP production
Outline: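 HEK293 cells stably expressing the receptor (5,000/well) treated with compound plus […] and 2 μM forskolin for 30 min at room temperature; cAMP by HTRF against a cAMP standard curve. EC50 from variable-slope sigmoidal fit; Ymax as % of (Pyr1)apelin-13 inhibition.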

[1] = Table 1, read-out: hAPJ cAMP EC50 Potency range
[2] = hAPJ cAMP EC50 Potency range, Table 1

| SMILES | EC50 [1] | also measured |
| --- | --- | --- |
| CCCCc1nc(O)c(S(=O)(=O)c2ccc(-c3ccccc3C(N)=O)cc2)c(O)c1N(C)c1ccccc1F [Example 174, 4′-((6-butyl-5-((2-fluorophenyl)(methyl)a-mino)-2,4-dihydroxypyridin-3-yl)sulfonyl)-[1,1′-biphenyl]-2-carboxamide] | 0.01 to 10 nM |  |
| CCN(c1cccc(C#N)c1)c1c(-c2ccn(C)n2)nc(O)c(S(=O)(=O)c2ccc(-c3cccc(F)c3C(N)=O)cc2)c1O [Example 215, 4′-((5-((3-cyanophenyl)(ethyl)ami-no)-2,4-dihydroxy-6-(1-methyl-1H-pyrazol-3-yl)pyridin-3-yl)sulfonyl)-3-fluoro-[1,1′-biphenyl]-2-carboxamide] | 0.01 to 10 nM |  |
| CCN(c1ccccc1)c1c(-c2ccn(C)n2)nc(O)c(C(=O)N2CCC(c3ncc(Cl)cc3F)C2)c1O (centres unmarked) [Example 204, (3-(5-chloro-3-fluoropyridin-2-yl)pyrrolidin-1-yl)(5-(ethyl(phenyl)amino)-2,4-dihydroxy-6-(1-methyl-1H-pyrazol-3-yl)pyridin-3-yl)methanone] |  | EC50 (Table 2, read-out: hAPJ cAMP EC50 Potency range): 0.01 to 10 nM |
| CCCCc1nc(O)c(C(=O)N2CCC(c3ccccc3F)C2)c(O)c1N(CC)c1ccccc1 (centres unmarked) [Example 075, (6-butyl-5-(ethyl(phenyl)amino)-2,4-dihydroxypyridin-3-yl)(3-(2-fluorophenyl)pyrrolidin-1-yl)methanone] |  | EC50 [2]: 0.01 to 10 nM |
| CCCCc1nc(O)c(S(=O)(=O)c2ccc(-c3ccc(F)nc3C)cc2)c(O)c1N(CC)c1cccc(C#N)c1 [Example 178, 3-((2-butyl-5-((4-(6-fluoro-2-methylpyridin-3-yl)phenyl)sulfonyl)-4,6-dihydroxypyridin-3-yl)(ethyl)amino)benzonitrile] | 0.01 to 10 nM |  |
| CCCCc1nc(O)c(C(=O)N2CC[C@H](c3ccccc3)C2)c(O)c1N(C)c1ccccc1 [Example 008, (R)-(6-butyl-2,4-dihydroxy-5-(methyl(phenyl)amino)pyridin-3-yl)(3-phenylpyrrolidin-1-yl)methanone] |  | EC50 [2]: 10 to 100 nM |
| CCCCc1nc(O)c(S(=O)(=O)c2ccc(-c3ccnc(F)c3C)cc2)c(O)c1N(C)c1ccc(Cl)cc1 [Example 103, 6-butyl-5-((4-chlorophenyl)(methyl)amino)-3-((4-(2-fluoro-3-methylpyridin-4-yl)phenyl)sulfonyl)pyridine-2,4-diol] | 0.01 to 10 nM |  |
| CCCCc1nc(O)c(S(=O)(=O)c2ccc(-c3ccccc3)cc2)c(O)c1N(CC)c1ccccc1 [Example 088, 3-([1,1′-biphenyl]-4-ylsulfonyl)-6-butyl-5-(ethyl(phenyl)amino)pyridine-2,4-diol] | 10 to 100 nM |  |
| CCN(c1ccccc1)c1c(CC2CC2)nc(O)c(S(=O)(=O)c2ccc(-c3ccc(F)nc3C)cc2)c1O [Example 051, 6-(cyclopropylmethyl)-5-(ethyl(phenyl)amino)-3-((4-(6-fluoro-2-methylpyridin-3-yl)phenyl)sulfonyl)pyridine-2,4-diol] | 0.01 to 10 nM |  |
| CCCCc1nc(O)c(S(=O)(=O)c2ccc(-c3ccnc(F)c3C)cc2)c(O)c1N(c1ccccc1)C(C)C [Example 020] | 0.01 to 10 nM |  |
| CCN(c1ccccc1)c1c(-c2cnn(C)c2)nc(O)c(S(=O)(=O)c2ccc(-c3ccccc3C(=O)N(C)C)cc2)c1O [Example 154, 4′-((5-(ethyl(phenyl)amino)-2,4-dihydroxy-6-(1-methyl-1H-pyrazol-4-yl)pyridin-3-yl)sulfonyl)-N,N-dimethyl-[1,1′-biphenyl]-2-carboxamide] | 0.01 to 10 nM |  |

Now from value to compound, other results behind:

| EC50 [1] | SMILES | also measured |
| --- | --- | --- |
| 10 to 100 nM | CCCCc1nc(O)c(S(=O)(=O)c2ccc(-c3cccnc3C)cc2)c(O)c1N(CC)c1cc(C)cc(C)c1 [Example 183, 6-butyl-5-((3,5-di-methylphenyl)(ethyl)a-mino)-3-((4-(2-methylpyridin-3-yl)phenyl)sulfonyl)pyri-dine-2,4-diol] |  |
| 0.01 to 10 nM | Cc1ncccc1-c1ccc(S(=O)(=O)c2c(O)nc(-c3ccn(C)n3)c(N(c3ccccc3)C(C)C)c2O)cc1 [Example 165, 5-(iso-propyl(phenyl)amino)-6-(1-methyl-1H-pyrazol-3-yl)-3-((4-(2-methylpyridin-3-yl)phenyl)sulfonyl)pyri-dine-2,4-diol] |  |
| 0.01 to 10 nM | CCCCc1nc(O)c(S(=O)(=O)c2ccc(-c3ccncc3C)cc2)c(O)c1N1CCCOc2ccccc21 [Example 129, 6-butyl-5-(3,4-dihydrobenzo[b][1,4]oxazepin-5(2H)-yl)-3-((4-(3-methylpyridin-4-yl)phenyl)sulfonyl)pyridine-2,4-diol] |  |
| 10 to 100 nM | CCCCc1nc(O)c(S(=O)(=O)c2ccc(-c3ccccc3C(=O)N(C)C)cc2)c(O)c1N1CCCc2ccccc21 [Example 054, 4′-((6-butyl-5-(3,4-dihydroquinolin-1(2H)-yl)-2,4-dihydroxypyridin-3-yl)sulfonyl)-N,N-dimethyl-[1,1′-biphenyl]-2-carboxamide] |  |
| 0.01 to 10 nM | CCCCc1nc(O)c(S(=O)(=O)c2ccc(-c3ccncc3C)cc2)c(O)c1N(C)c1cccc(C)c1 [Example 090, 6-butyl-5-(methyl(m-tolyl)amino)-3-((4-(3-methylpyridin-4-yl)phenyl)sulfonyl)pyridine-2,4-diol] |  |
| 0.01 to 10 nM | CCCCc1nc(O)c(S(=O)(=O)c2ccc(-c3ccncc3C)cc2)c(O)c1N(C)c1ccc(C)cc1 [Example 094, 6-butyl-5-(methyl(p-tolyl)amino)-3-((4-(3-methylpyridin-4-yl)phenyl)sulfonyl)pyridine-2,4-diol] |  |
| 0.01 to 10 nM | CCCCc1nc(O)c(S(=O)(=O)c2ccc(-c3ccc(F)nc3C)cc2)c(O)c1N(CC)c1ccccc1 [Example 086, 6-butyl-5-(ethyl(phenyl)amino)-3-((4-(6-fluoro-2-methylpyridin-3-yl)phenyl)sulfonyl)pyridine-2,4-diol] |  |
| 0.01 to 10 nM | CCN(c1ccccc1)c1c(-c2cnc(C)s2)nc(O)c(S(=O)(=O)c2ccc(-c3ccncc3C)cc2)c1O [Example 187, 5-(ethyl(phenyl)amino)-3-((4-(3-methylpyridin-4-yl)phenyl)sulfonyl)-6-(2-methylthiazol-5-yl)pyridine-2,4-diol] |  |
| 0.01 to 10 nM | CCN(c1ccccc1)c1c(CC2CC2)nc(O)c(S(=O)(=O)c2ccc(-c3ccncc3C)cc2)c1O [Example 052, 6-(cyclopropylmethyl)-5-(ethyl(phenyl)amino)-3-((4-(3-methylpyridin-4-yl)phenyl)sulfonyl)pyridine-2,4-diol] |  |
| 0.01 to 10 nM | CCCCc1nc(O)c(S(=O)(=O)c2ccc(-c3ccnc(F)c3C)cc2)c(O)c1N(C)c1cccc(Cl)c1 [Example 107, 6-butyl-5-((3-chlorophenyl)(methyl)amino)-3-((4-(2-fluoro-3-methylpyridin-4-yl)phenyl)sulfonyl)pyridine-2,4-diol] |  |
| 0.01 to 10 nM | CCN(c1cccc(C#N)c1)c1c(-c2ccn(C)n2)nc(O)c(S(=O)(=O)c2ccc(-c3ccccc3C(=O)NC3CC3)cc2)c1O [Example 218, 4′-((5-((3-cyanophenyl)(ethyl)ami-no)-2,4-dihydroxy-6-(1-methyl-1H-pyrazol-3-yl)pyridin-3-y)sulfonyl)-N-cyclopropyl-[1,1′-biphenyl]-2-carboxamide] |  |
| 0.01 to 10 nM | CCN(c1ccccc1)c1c(-c2cnc(C)s2)nc(O)c(S(=O)(=O)c2ccc(-c3ccnc(F)c3C)cc2)c1O [Example 191, 5-(ethyl(phenyl)amino)-3-((4-(2-fluoro-3-methylpyridin-4-yl)phenyl)sulfonyl)-6-(2-methylthiazol-5-yl)pyridine-2,4-diol] |  |
